# Experimental data taken from patent publication US10138230B2, “Autotaxin inhibitors” (CANCER RESEARCH TECHNOLOGY LIMITED, priority 2015, dated 2018).
# pIC50: −log10 of the molar value. Counter-ions that a name gives are not always drawn.
# Target: human recombinant ATX (Homo sapiens (Human), UniProt Q13822)
# Test: Autotaxin (ATX) activity Quanta Red assay
# Format: biochemical
# Conditions: 15 μM Rac-1-Palmitoyl-glycero-3-phosphocholine, 2 hours room temperature, determined in duplicate
# How it was run: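 Choline released from 15 μM LPC substrate by 0.8 μg/mL recombinant human ATX (pH 8.0 Tris, CaCl2, 4% DMSO, 2 h, RT) was detected by coupled Quanta Red fluorescence.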
row,pIC50,SMILES
1,7.43,"O=C(Nc1nnc(CCc2ccc(Cl)cc2)s1)[C@@H]1CC(=O)N(c2ccc(CN3CCOCC3)cc2)C1 [Compound F161, (3R)-N-[5-[2-(4-chlorophenyl)ethyl]-1,3,4-thiadiazol-2-yl]-1-[4-(morpholinomethyl)phenyl]-5-oxo-pyrrolidine-3-carboxamide]"
2,7.43,"O=C(Nc1ccc(CCc2ccccc2)nn1)C1CC(=O)N(c2ccc(CN3CCOCC3)cc2)C1 (stereo not drawn) [Compound F162, 1-[4-(morpholinomethyl)phenyl]-5-oxo-N-[6-(2-phenylethyl)pyridazin-3-yl]pyrrolidine-3-carboxamide]"
3,7.31,"O=C(Nc1nnc(CCc2ccc(Cl)cc2)s1)[C@@H]1CC(=O)N(c2ccc(CN3CCCCC3)cc2)C1 [Compound F163, (3R)-N-[5-[2-(4-chlorophenyl)ethyl]-1,3,4-thiadiazol-2-yl]-5-oxo-1-[4-(1-piperidylmethyl)phenyl] pyrrolidine-3-carboxamide]"
4,7.15,"O=C(Nc1nnc(CCC2CCCCO2)s1)[C@H]1CC(=O)N(c2ccc(CN3CCCCC3)cc2)C1 (stereo partly drawn) [Compound F164, (3S)-5-oxo-1-[4-(1-piperidylmethyl)phenyl]-N-[5-(2-tetrahydropyran-2-ylethyl)-1,3,4-thiadiazol-2-yl]pyrrolidine-3-carboxamide]"
5,7.02,"O=C(Nc1nnc(CCC2CCCCO2)s1)[C@H]1CC(=O)N(c2ccc(CN3CCOCC3)cc2)C1 (stereo partly drawn) [Compound F165, (3S)-1-[4-(morpholinomethyl)phenyl]-5-oxo-N-[5-(2-tetrahydropyran-2-ylethyl)-1,3,4-thiadiazol-2-yl]pyrrolidine-3-carboxamide]"
6,7.80,"O=C(Nc1nnc(CCC2CCCC2)s1)C1CC(=O)N(c2ccc(CN3CCCCC3)cc2)C1 (stereo not drawn) [Compound F166, N-[5-(2-cyclopentylethyl)-1,3,4-thiadiazol-2-yl]-5-oxo-1-[4-(1-piperidylmethyl)phenyl] pyrrolidine-3-carboxamide]"
7,7.77,"O=C(NC1CC(=O)N(c2ccc(CN3CCCCC3)cc2)C1)c1nnc(CCc2ccc(F)cc2)s1 (stereo not drawn) [Compound F168, 5-[2-(4-fluorophenyl)ethyl]-N-[5-oxo-1-[4-(1-piperidylmethyl)phenyl]pyrrolidin-3-yl]-1,3,4-thiadiazole-2-carboxamide]"
8,7.66,"CC1(O)CCN(Cc2ccc(N3C[C@H](NC(=O)c4nnc(CCc5ccc(Cl)cc5)s4)CC3=O)cc2)CC1 [Compound F169, 5-[2-(4-chlorophenyl)ethyl]-N-[(3R)-1-[4-[(4-hydroxy-4-methyl-1-piperidyl)methyl]phenyl]-5-oxo-pyrrolidin-3-yl]-1,3,4-thiadiazole-2-carboxamide]"
9,7.24,"CC(C)(O)CCNCc1ccc(N2C[C@H](NC(=O)c3nnc(CCc4ccc(Cl)cc4)s3)CC2=O)cc1 [Compound F170, 5-[2-(4-chlorophenyl)ethyl]-N-[(3R)-1-[4-[[(3-hydroxy-3-methyl-butyl)amino]methyl]phenyl]-5-oxo-pyrrolidin-3-yl]-1,3,4-thiadiazole-2-carboxamide hydrochloride]"
10,7.24,"CN(CCC(C)(C)O)Cc1ccc(N2C[C@H](NC(=O)c3nnc(CCc4ccc(Cl)cc4)s3)CC2=O)cc1 [Compound F171, 5-[2-(4-chlorophenyl)ethyl]-N-[(3R)-1-[4-[[(3-hydroxy-3-methyl-butyl)-methyl-amino]methyl]phenyl]-5-oxo-pyrrolidin-3-yl]-1,3,4-thiadiazole-2-carboxamide]"
11,7.12,"O=C(NC1CC(=O)N(c2ccc(CN3CCCCC3)cc2)C1)c1nnc(CCc2ccccc2)s1 (stereo not drawn) [Compound F172, N-[5-oxo-1-[4-(1-piperidylmethyl)phenyl]pyrrolidin-3-yl]-5-(2-phenylethyl)-1,3,4-thiadiazole-2-carboxamide]"
12,7.62,"O=C(N[C@@H]1CC(=O)N(c2ccc(CN3CCCCC3)cc2)C1)c1cc(CCc2ccc(F)cc2)on1 [Compound F173, 5-[2-(4-fluorophenyl)ethyl]-N-[(3R)-5-oxo-1-[4-(1-piperidylmethyl)phenyl]pyrrolidin-3-yl]isoxazole-3-carboxamide]"
13,7.48,"O=C(N[C@H]1CC(=O)N(c2ccc(CN3CCCCC3)cc2)C1)c1cc(CCc2ccc(F)cc2)on1 [Compound F174, 5-[2-(4-fluorophenyl)ethyl]-N-[(3S)-5-oxo-1-[4-(1-piperidylmethyl)phenyl]pyrrolidin-3-yl]isoxazole-3-carboxamide]"
14,7.33,"O=C(NC1CC(=O)N(c2ccc(CN3CCCCC3)cc2)C1)c1cc(CCc2ccccc2)on1 (stereo not drawn) [Compound F175, N-[5-oxo-1-[4-(1-piperidylmethyl)phenyl]pyrrolidin-3-yl]-5-(2-phenylethyl)isoxazole-3-carboxamide]"
15,7.96,"O=C(Nc1nnc(CCc2ccccc2)s1)C1CC(=O)N(c2ccc(CN3CCOCC3)cc2)C1 (stereo not drawn) [Compound F176, 1-[4-(morpholinomethyl)phenyl]-5-oxo-N-[5-(2-phenylethyl)-1,3,4-thiadiazol-2-yl]pyrrolidine-3-carboxamide]"
16,7.54,"CN(C)Cc1ccc(N2CC(C(=O)Nc3nnc(CCc4ccc(Cl)cc4)s3)CC2=O)cc1 (stereo not drawn) [Compound F177, N-[5-[2-(4-chlorophenyl)ethyl]-1,3,4-thiadiazol-2-yl]-1-[4-[(dimethylamino)methyl]phenyl]-5-oxo-pyrrolidine-3-carboxamide]"
17,7.52,"O=C(Nc1ccc(CCc2ccc(F)cc2)nn1)[C@H]1CC(=O)N(c2ccc(CN3CCCCC3)cc2)C1 [Compound F178, (3S)-N-[6-[2-(4-fluorophenyl)ethyl]pyridazin-3-yl]-5-oxo-1-[4-(1-piperidylmethyl)phenyl] pyrrolidine-3-carboxamide]"

# Continued, compound first:
row,SMILES,pIC50
1,"O=C(Nc1ccc(CCc2ccc(F)cc2)nn1)C1CC(=O)N(c2ccc(CN3CCOCC3)cc2)C1 (stereo not drawn) [Compound F149, 1-(4-morpholin-4-ylmethyl-phenyl)-5-oxo-pyrrolidine-3-carboxylic acid {6-[2-(4-fluoro-phenyl)-ethyl]-pyridazin-3-yl}-amide]",8.15
2,"COc1ccc(CCc2nnc(NC(=O)C3CC(=O)N(c4ccc(CN5CCOCC5)cc4)C3)s2)cc1 (stereo not drawn) [Compound F150, N-[5-[2-(4-methoxyphenyl)ethyl]-1,3,4-thiadiazol-2-yl]-1-[4-(morpholinomethyl)phenyl]-5-oxo-pyrrolidine-3-carboxamide]",8.10
3,"O=C(Nc1nnc(CCc2ccc(Cl)cc2)s1)C1CC(=O)N(c2ccc(CN3CCCC3)cc2)C1 (stereo not drawn) [Compound F151, N-[5-[2-(4-chlorophenyl)ethyl]-1,3,4-thiadiazol-2-yl]-5-oxo-1-[4-(pyrrolidin-1-ylmethyl)phenyl] pyrrolidine-3-carboxamide]",8.05
4,"CN(Cc1ccc(N2C[C@@H](C(=O)Nc3cc(CCc4ccc(Cl)cc4)on3)CC2=O)cc1)C1CCOC1 (stereo partly drawn) [Compound F152, (3S)-N-[5-[2-(4-chlorophenyl)ethyl]isoxazol-3-yl]-1-[4-[[methyl(tetrahydrofuran-3-yl)amino]methyl]phenyl]-5-oxo-pyrrolidine-3-carboxamide]",8.70
5,"O=C1CC(CNc2nnc(CCc3ccc(Cl)cc3)s2)CN1c1ccc(CN2CCOCC2)cc1 (stereo not drawn) [Compound F153, 4-({5-[2-(4-Chloro-phenyl)-ethyl]-[1,3,4]thiadiazol-2-ylamino}-methyl)-1-(4-morpholin-4-ylmethyl-phenyl)-pyrrolidin-2-one]",8.70
6,"O=C(Nc1nnc(SCc2ccc(F)cc2)s1)C1CC(=O)N(c2ccc(CN3CCOCC3)cc2)C1 (stereo not drawn) [Compound F154, 1-(4-morpholin-4-ylmethyl-phenyl)-5-oxo-pyrrolidine-3-carboxylic acid [5-(4-fluoro-benzylsulfanyl)-[1,3,4]thiadiazol-2-yl]-amide]",8.52
7,"CN(Cc1ccc(N2C[C@@H](C(=O)Nc3ccc(CCc4ccc(F)cc4)nn3)CC2=O)cc1)C1COC1 [Compound F155, (3S)-N-[6-[2-(4-fluorophenyl)ethyl]pyridazin-3-yl]-1-[4-[[methyl(oxetan-3-yl)amino]methyl]phenyl]-5-oxo-pyrrolidine-3-carboxamide]",7.96
8,"O=C(Nc1nnc(CCc2ccc(Cl)cc2)s1)C1CC(=O)N(c2ccc(CN3CCCNCC3)cc2)C1 (stereo not drawn) [Compound F156, 1-(4-[1,4]Diazepan-1-ylmethyl-phenyl)-5-oxo-pyrrolidine-3-carboxylic acid {5-[2-(4-chloro-phenyl)-ethyl]-[1,3,4]thiadiazol-2-yl}-amide; dihydrochloride]",7.85
9,"CC(C)(C)OC(=O)N1CCN(Cc2ccc(N3CC(C(=O)Nc4nnc(CCc5ccc(Cl)cc5)s4)CC3=O)cc2)CC1 (stereo not drawn) [Compound F157, tert-butyl 4-[[4-[4-[[5-[2-(4-chlorophenyl)ethyl]-1,3,4-thiadiazol-2-yl]carbamoyl]-2-oxo-pyrrolidin-1-yl]phenyl]methyl] piperazine-1-carboxylate]",7.82
10,"O=C(Nc1cc(CCc2ccccc2)on1)C1CC(=O)N(c2ccc(CN3CCOCC3)cc2)C1 (stereo not drawn) [Compound F158, 1-[4-(morpholinomethyl)phenyl]-5-oxo-N-[5-(2-phenylethyl)isoxazol-3-yl]pyrrolidine-3-carboxamide]",7.77
11,"CC(C)N(C)Cc1ccc(N2CC(C(=O)Nc3nnc(CCc4ccc(Cl)cc4)s3)CC2=O)cc1 (stereo not drawn) [Compound F159, N-[5-[2-(4-chlorophenyl)ethyl]-1,3,4-thiadiazol-2-yl]-1-[4-[[isopropyl (methyl)amino]methyl]phenyl]-5-oxo-pyrrolidine-3-carboxamide]",7.74
12,"O=C(Nc1nnc(CCc2ccc(Cl)cc2)s1)C1CC(=O)N(c2ccc(CN3CCNCC3)cc2)C1 (stereo not drawn) [Compound F160, 5-Oxo-1-(4-piperazin-1-ylmethyl-phenyl)-pyrrolidine-3-carboxylic acid {5-[2-(4-chloro-phenyl)-ethyl]-[1,3,4]thiadiazol-2-yl}-amide; dihydrochloride]",7.62
13,"O=C(N[C@H]1CCN(c2ccc(CN3CCOCC3)cc2)C1)c1nnc(CCc2ccc(Cl)cc2)s1 [Compound F167, 5-[2-(4-Chloro-phenyl)-ethyl]-[1,3,4]thiadiazole-2-carboxylic acid [(S)-1-(4-morpholin-4-ylmethyl-phenyl)-pyrrolidin-3-yl]-amide]",7.80
